Legend:
ovarian follicles [1] = type: in vivo, female Balb/c mice; settings: single 75, 100 or 150 mg/kg Cy or 4 weekly 75 mg/kg Cy, AS101 as co-treatment with Cy; for ratio of primary follicles relative to primordial follicles: FIG. 3A; for ratio of secondary follicles relative to primordial follicles: FIG. 3B
Experimental: (§1) 6 week old female Balb/c mice were divided randomly into 4 groups. The mice in the treatment groups received cyclophosphamide (Cy) with or without co-treatment with AS101. Control mice received injections of phosphate buffer saline (PBS) or AS101. Cy treatment consisted of a single intraperitoneal injection of 75, 100 or 150 mg/kg Cy, or 4 weekly injections of 75 mg/kg Cy. AS101 was injected at a dose of 10 mg/kg every other day starting 1 week prior to Cy administration until 1 week after the last administration of Cy. PBS was injected on the same days as described for AS101.
(§2) Both ovaries were removed 7 days after the last Cy administration treatment, and fixed in 4% paraformaldehyde in PBS. The ovaries were embedded in paraplast and serially sectioned to 5 μm slices, and stained with haematoxylin/eosin. Care was taken to ensure that both ovaries were removed from each mouse in their entirety for histological processing. Primordial, primary and secondary follicles were counted by two blinded examiners who were unaware of the treatments, using a light microscope (AxioImager Z1, Zeiss, Oberkochen, Germany) in bright-field mode using a X20 objective. To avoid counting the same follicle twice, only one section in each set of five consecutive sections was used. The relative distribution of different stages of early follicle growth was then calculated.
(§3) Follicles were classified as primordial follicles (PMF) if they contained an oocyte surrounded by a partial or complete layer of squamous pregranulosa cells without a theca layer. In this species, PMF are located almost exclusively in the ovarian cortex, and they are very small (about 15 μm diameter). The follicular count of each follicle type was then multiplied by 5 to reach a representative of total follicles [Meirow et al., Hum Reprod 1999; 14:1903-1907]. The data from follicular count is presented as the percentage of the count obtained from the PBS-treated control group.
The populations of primary follicles, secondary follicles and primordial follicles (PMF) were characterized following single injections of 75, 100 or 150 mg/kg Cy or 4 weekly injections of 75 mg/kg Cy.

tumor = settings: cited from earlier work
[2] = cited from earlier work
ovarian follicles [3] = type: in vivo
Experimental: Follicular apoptosis was visualized using the TUNEL staining of ovaries from additional group of mice sacrificed at 12, 24 and 48 hours after a single injection of 150 mg/kg Cy.

[4] = cancer patients, AS101 in combination with chemotherapy; cited from earlier work
[5] = test system: ovarian primordial follicles (PMF); test: Primordial follicle (PMF) counts in ovaries of cyclophosphamide-treated mice; type: in vivo, female Balb/c mice; settings: AS101 10 mg/kg every other day where co-treated; for ovarian PMF count, % of that of the control (PBS) group: ovaries removed 7 days after Cy
Experimental: as §1, §2, §3
Student's T-test was performed to assess the differences between groups. Statistical significance was determined at p<0.05.

[6] = test system: anti-Mullerian hormone (AMH); test: Plasma anti-Mullerian hormone (AMH) levels by ELISA; type: in vivo, female Balb/c mice; settings: 4 weekly injections of 75 mg/kg Cy; control (PBS) group 10.7±2.1 ng/ml
Experimental: as §1
Anti-Mullerian hormone (AMH) levels in the plasma were measured by ELISA techniques according to the manufacturer instruction (DSL, Webster, Tex.).
Mice were administered PBS, AS101, Cy or Cy+AS101 for 4 weeks, as described hereinabove.

Row | Compound | ratio of primary follicles relative to primordial follicles (ovarian follicles [1]) | ratio of secondary follicles relative to primordial follicles (ovarian follicles [1]) | effect in combination with Cy (tumor; treatment of tumor-bearing mice) | anti-tumoral effect (tumor; variety of tumor models in mice and humans) | survival of mice ([2]; mice treated with various cytotoxic drugs or radiation) | protection from hematopoietic damage ([2]; mice, lethal and sublethal doses of chemotherapeutic drugs, including cyclophosphamide) | TUNEL staining of ovary, follicle appearance (ovarian follicles [3]; co-therapy with a chemotherapeutic agent and AS101, FIG. 5C) | apoptotic (TUNEL) stain in primordial follicles (ovarian follicles [3]; ovary treated with AS101, FIG. 5B) | severity of neutropenia, thrombocytopenia and alopecia that accompany chemotherapy [4] | PMF count, % of that of the control group ([5]; 75 mg/kg Cy once a week for 4 weeks, ovaries removed 7 days after last Cy) | ovarian PMF count, % of that of the control (PBS) group ([5]; single i.p. injection of 75 mg/kg Cy) | ovarian PMF count, % of that of the control (PBS) group ([5]; single i.p. injection of 100 mg/kg Cy) | ovarian PMF count, % of that of the control (PBS) group ([5]; single i.p. injection of 150 mg/kg Cy) | plasma AMH levels [6] | apoptotic (TUNEL) staining in granulosa cells of growing follicles (ovarian follicles [3]; 24 hours after a single treatment with 150 mg/kg Cy, FIG. 5A)
1 | Cl[TeH]1(Cl)(Cl)OCCO1 [AS101, ammonium trichloro(dioxyethylene-O,O′)tellurate] | prevented the Cy-induced increase in these ratios | prevented the Cy-induced increase in these ratios | synergistic effect with Cy | exhibits an anti-tumoral effect | increase the survival of mice | protect mice from hematopoietic damage | follicles destroyed by chemotherapy as well as healthy primordial follicles of ovary are observed | no apoptotic stain was detected | significant reduction in the severity |  |  |  |  |  | 
2 | O=P1(N(CCCl)CCCl)NCCCO1 (centres unmarked) [Cy, cyclophosphamide] | increased the ratio | increased the ratio |  |  |  |  |  |  |  | 12.2%±9.5% | 52.1%±15.1% | 48%±12.6% | 38%±22.2% | 7.2 ± 1.9 ng/mL | extensive apoptotic staining

From patent US20120035260A1, “TELLURIUM-CONTAINING COMPOUNDS FOR AFFECTING FEMALE'S REPRODUCTIVE SYSTEM FOLLOWING CHEMOTHERAPY AND/OR RADIOTHERAPY” (BIOMAS LTD., priority 2009, published 2012)
